Test results reported in ChEMBL document CHEMBL1201862, “PubChem BioAssay data set” (2004).
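1) Cells in 96-well plates. 2) Compound, 48 h, 5 concentrations. 3) Linear interpolation between surrounding doses. 4) Unreached endpoint = highest concentration. The concentration for 50% growth inhibition is given as GI50.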 Active and inactive are the calls of the source. No stated cut-off is given here; in the data, active = GI50 up to about 1.1 µM and inactive = higher.

Assays:
Experiment in all cases: growth of human tumour cells (NCI), 48 h
786-0 = system: 786-0
A498 = system: A498
A549 = system: A549
ACHN = system: ACHN
BT-549 = system: BT-549
CAKI-1 = system: CAKI-1
CCRF-CEM = system: CCRF-CEM
COLO 205 = system: COLO 205
DU-145 = system: DU-145
EKVX = system: EKVX
HCC 2998 = system: HCC 2998
HCT-116 = system: HCT-116
HCT-15 = system: HCT-15
HL-60 = system: HL-60
HOP-62 = system: HOP-62
HOP-92 = system: HOP-92
HT-29 = system: HT-29
Hs-578T = system: Hs-578T
IGROV-1 = system: IGROV-1
K562 = system: K562
KM12 = system: KM12
LOX IMVI = system: LOX IMVI
M14 = system: M14
MCF7 = system: MCF7
MDA-MB-231 = system: MDA-MB-231
MDA-MB-435 = system: MDA-MB-435
MDA-N = system: MDA-N
MOLT-4 = system: MOLT-4
Malme-3M = system: Malme-3M
NCI-H226 = system: NCI-H226
NCI-H23 = system: NCI-H23
NCI-H460 = system: NCI-H460
NCI-H522 = system: NCI-H522
NCI/ADR-RES = system: NCI/ADR-RES
OVCAR-3 = system: OVCAR-3
OVCAR-4 = system: OVCAR-4
OVCAR-5 = system: OVCAR-5
OVCAR-8 = system: OVCAR-8
PC-3 = system: PC-3
RPMI-8226 = system: RPMI-8226
RXF 393 = system: RXF 393
SF-268 = system: SF-268
SF-295 = system: SF-295
SF-539 = system: SF-539
SK-MEL-28 = system: SK-MEL-28
SK-MEL-2 = system: SK-MEL-2
SK-MEL-5 = system: SK-MEL-5
SK-OV-3 = system: SK-OV-3
SN12C = system: SN12C
SNB-19 = system: SNB-19
SNB-75 = system: SNB-75
SR = system: SR
SW-620 = system: SW-620
T47D = system: T47D
TK-10 = system: TK-10
U-251 = system: U-251
UACC-257 = system: UACC-257
UACC-62 = system: UACC-62
UO-31 = system: UO-31
DLD-1 = system: DLD-1
DMS-114 = system: DMS-114
DMS-273 = system: DMS-273
HOP-18 = system: HOP-18
KM-20L2 = system: KM-20L2
LXFL 529 = system: LXFL 529
M19-MEL = system: M19-MEL
SNB-78 = system: SNB-78

Measured: GI50

C=C(Cl)C(Br)(CCl)CCC(Br)C(C)(C)Cl (configuration not stated)
inactive: 786-0 1.95 µM | A498 17.7 µM | A549 17.7 µM | ACHN 7.96 µM | BT-549 2.52 µM | CAKI-1 4.95 µM | COLO 205 4.53 µM | DU-145 13.7 µM | EKVX 5.58 µM | HCC 2998 14.1 µM | HCT-116 1.72 µM | HL-60 2.43 µM | HOP-62 2.76 µM | HOP-92 9.75 µM | HT-29 2.02 µM | Hs-578T 3.66 µM | IGROV-1 5.82 µM | K562 2.44 µM | KM12 6.87 µM | LOX IMVI 1.25 µM | M14 2.91 µM | MCF7 3.38 µM | MDA-MB-231 1.64 µM | MDA-MB-435 3.57 µM | MDA-N 3.49 µM | MOLT-4 1.6 µM | Malme-3M 2.83 µM | NCI-H226 5.32 µM | NCI-H23 3.75 µM | NCI-H460 6.81 µM | NCI-H522 3.42 µM | NCI/ADR-RES 3.17 µM | OVCAR-3 6.17 µM | OVCAR-4 8.83 µM | OVCAR-5 7.21 µM | OVCAR-8 3.38 µM | PC-3 6.12 µM | RPMI-8226 2.06 µM | RXF 393 2.72 µM | SF-268 2.93 µM | SF-295 5.77 µM | SF-539 6.95 µM | SK-MEL-28 4.68 µM | SK-MEL-2 6.24 µM | SK-MEL-5 2.47 µM | SK-OV-3 14 µM | SN12C 2.84 µM | SNB-19 3.48 µM | SNB-75 3.6 µM | SR 2.92 µM | SW-620 1.71 µM | T47D 1.15 µM | TK-10 12.2 µM | U-251 7.24 µM | UACC-257 2.67 µM | UACC-62 3.37 µM | UO-31 5.61 µM
active: CCRF-CEM 0.92 µM
3.26 µM: HCT-15

O=C(NCCNCCO)N/N=C/c1cccc([N+](=O)[O-])c1
> 100 µM: HCT-15
inactive: 786-0 > 100 µM | A498 > 100 µM | A549 > 100 µM | ACHN > 100 µM | CAKI-1 > 100 µM | CCRF-CEM > 100 µM | COLO 205 > 100 µM | DLD-1 > 100 µM | DMS-114 > 100 µM | DMS-273 > 100 µM | HCT-116 > 100 µM | HL-60 > 100 µM | HOP-18 > 100 µM | HOP-62 > 100 µM | HOP-92 > 100 µM | HT-29 > 100 µM | IGROV-1 > 100 µM | K562 > 100 µM | KM-20L2 > 100 µM | KM12 > 100 µM | LOX IMVI > 100 µM | LXFL 529 > 100 µM | M14 > 100 µM | M19-MEL > 100 µM | MOLT-4 > 100 µM | Malme-3M > 100 µM | NCI-H226 > 100 µM | NCI-H23 > 100 µM | NCI-H460 > 100 µM | NCI-H522 > 100 µM | OVCAR-3 > 100 µM | OVCAR-4 > 100 µM | OVCAR-5 > 100 µM | OVCAR-8 > 100 µM | RPMI-8226 > 100 µM | RXF 393 > 100 µM | SF-268 > 100 µM | SF-295 > 100 µM | SF-539 > 100 µM | SK-MEL-28 > 100 µM | SK-MEL-2 > 100 µM | SK-MEL-5 > 100 µM | SK-OV-3 > 100 µM | SN12C > 100 µM | SNB-75 > 100 µM | SNB-78 > 100 µM | SW-620 > 100 µM | TK-10 > 100 µM | U-251 > 100 µM | UACC-257 > 100 µM | UACC-62 > 100 µM | UO-31 > 100 µM
